Laboratory results: PMC11839852, “Preclinical comparison of (radio)lanthanides using mass spectrometry and nuclear imaging techniques: biodistribution of lanthanide-based tumor-targeting agents and lanthanides in ionic form” (European Journal of Nuclear Medicine and Molecular Imaging, 2024)
Like-named read-outs stand apart in the source and are kept apart here. Marks after values point to notes of the source that are not given here.

Columns and labels:
[1] = system: AR42J, PC-3 PIP and KB tumor cells; test: In vitro cell uptake of Ln-DTPA complexes; format: cell-based; conditions: all tumor cell lines, 1 h and 4 h incubation
Protocol: (§1) A mixture of equal molar amounts of the lanthanide chloride salts (100 nM stock solutions of ^natLuCl3, ^natTbCl3, ^natGdCl3, and ^natEuCl3, diluted in saline with an adjusted pH value to 3.5‒4.0) was prepared to obtain a final concentration of 10 pmol/mL (2.5 pmol/mL per lanthanide salt) and tested with AR42J, PC-3 PIP and KB tumor cells according to the same protocol as described for the Ln-labeled biomolecules (Supplementary Material). Analogous in vitro cell uptake studies were also performed with lanthanide metal complexes of diethylenetriaminepentaacetic acid (DTPA, Sigma Aldrich Chemie, Steinheim, Germany) to obtain a final concentration of 10 pmol/mL (2.5 pmol/mL per lanthanide complex) (Supplementary Material).
Methods: The same experimental setting as described for Ln-labeled biomolecules was applied to perform uptake and internalization studies with the lanthanide DTPA complexes (Ln-DTPA; Ln = ^natLu, ^natTb, ^natGd and ^natEu). The lanthanides were dissolved in 0.05 M hydrochloric acid and further diluted in a 1:5 (v/v) mixture of sodium acetate (0.5 M) and hydrochloric acid (0.05 M), pH ~4.5. A 10-fold molar excess of DTPA (5 mM, aq.) was added to each lanthanide dilution and the reaction mixtures were incubated for 10 min at 95 °C. The complexed lanthanides were further diluted in saline with an adjusted pH value to 3.5-4.0 for in vitro experiments. The applied solution was a mixture of the four Ln-DTPA complexes at a final concentration of 0.4 µM. Of these mixtures, 25 μL were added to the well with the corresponding tumor cells. The tumor cells were incubated for 1 h and 4 h, respectively, at 37 °C and 5% CO2. After incubation, the tumor cells were treated as described for the Ln-labeled biomolecules and processed for the measurement with ICP-MS.

[2] = system: non-tumor-bearing immunocompetent FVB mice; conditions: mouse, in vivo, 1 h
[3] = design: method as in doi:10.1007/BF02040048, PMID 16411740, PMID 16644751; conditions: coordination with DOTA chelator; cited from earlier work
[4] = system: AR42J tumor cells; test: In vitro cell uptake of lanthanide chloride salts; format: cell-based, rat
Protocol: as §1
Cell uptake studies were performed in triplicate in 3‒6 independent experiments and the results presented as the average ± standard deviation (SD). Data were normalized to the values measured for the ^175Lu-labeled tumor targeting agent or [^175Lu]LuCl3, which were set as 100% and zero was defined as 0%. Statistical significance of the normalized data was assessed for the comparison of the values obtained for terbium, gadolinium and europium analogues with those obtained for the lutetium counterparts by applying one-way ANOVA with the Dunnett’s post-test using GraphPad Prism software (version 8). A p-value of < 0.05 was considered statistically significant.
Methods: The same experimental setting as described for Ln-labeled biomolecules was applied to perform uptake and internalization studies with the lanthanide salts (LnCl3; Ln = ^natLu, ^natTb, ^natGd and ^natEu). The applied solution was a mixture of the four lanthanide salts yielding a final concentration of 0.4 µM. Of these mixtures, 25 μL were added to the corresponding well with tumor cells. The cells were incubated for 1 h and 4 h, respectively, at 37 °C and 5% CO2. After incubation, the tumor cells were treated as described for the Ln-labeled biomolecules and processed for the measurement with ICP-MS.

[5] = system: non-tumor-bearing immunocompetent FVB mice; test: Biodistribution of lanthanide chloride salts LnCl3 (multiplexed ICP-MS); format: in vivo; conditions: for Tissue uptake: Blood / Tissue uptake: Bone / Tissue uptake: Brain / Tissue uptake: Heart / Tissue uptake: Intestines / Tissue uptake: Kidneys / Tissue uptake: Liver / Tissue uptake: Lung / Tissue uptake: Muscle / Tissue uptake: Pancreas / Tissue uptake: Salivary glands / Tissue uptake: Spleen / Tissue uptake: Stomach: non-tumor-bearing mice
[6] = system: non-tumor-bearing immunocompetent FVB mice; test: Biodistribution of Ln-DTPA complexes (multiplexed ICP-MS); conditions: 1 h p.i.
[7] = 24 h p.i., estimated ratios (organ <0.5% ID/g)
[8] = 96 h p.i., estimated ratios (organ <0.5% ID/g)

O=C([O-])CN(CCN(CC(=O)[O-])CC(=O)[O-])CCN(CC(=O)[O-])CC(=O)[O-].[Gd+3] [[^157Gd]Gd-DTPA]
Lanthanide detected in cell samples (background levels) [1]: < 60 ppt | Tissue uptake: Blood [2]: <0.5 % ID/g | Tissue uptake: Bone [2]: <0.5 % ID/g | Tissue uptake: Brain [2]: <0.5 % ID/g | Tissue uptake: Heart [2]: 0.55 ± 0.06 % ID/g | Tissue uptake: Intestines [2]: <0.5 % ID/g | Tissue uptake: Kidneys [2]: 2.1 ± 0.9 % ID/g | Tissue uptake: Liver [2]: <0.5 % ID/g | Tissue uptake: Lung [2]: 0.56 ± 0.12 % ID/g | Tissue uptake: Muscle [2]: 0.51 ± 0.07 % ID/g | Tissue uptake: Pancreas [2]: <0.5 % ID/g | Tissue uptake: Salivary glands [2]: <0.5 % ID/g | Tissue uptake: Spleen [2]: 0.52 ± 0.03 % ID/g | Tissue uptake: Stomach [2]: 0.77 ± 0.17 % ID/g

O=C([O-])CN1CCN(CC(=O)[O-])CCN(CC(=O)O)CCN(CC(=O)[O-])CC1.[Gd+3] [Gd-DOTA]
logK [3]: 24.6

O=C([O-])CN1CCN(CC(=O)[O-])CCN(CC(=O)[O-])CCN(CC(=O)[O-])CC1.[Lu+3] [Lu-DOTA]
logK [3]: 25.4

[Cl-].[Cl-].[Cl-].[Eu+3] [[^153Eu]EuCl3]
Lanthanide uptake compared with [175Lu]LuCl3 [4]: lower uptake | Organ ratios: Blood-to-bone ([5]; 1 h p.i.): 0.40 ± 0.05 | Organ ratios: Blood-to-liver ([5]; 1 h p.i.): 0.14 ± 0.02 | Organ ratios: Liver-to-bone ([5]; 1 h p.i.): 3.0 ± 0.4 | Tissue uptake: Blood ([5]; 1 h p.i.): 5.5 ± 0.6 % ID/g | Tissue uptake: Bone ([5]; 1 h p.i.): 14 ± 2 % ID/g | Tissue uptake: Brain ([5]; 1 h p.i.): 1.2 ± 0.9 % ID/g | Tissue uptake: Heart ([5]; 1 h p.i.): 5.3 ± 2.1 % ID/g | Tissue uptake: Intestines ([5]; 1 h p.i.): 2.6 ± 0.9 % ID/g | Tissue uptake: Kidneys ([5]; 1 h p.i.): 8.1 ± 2.1 % ID/g | Tissue uptake: Liver ([5]; 1 h p.i.): 41 ± 5 % ID/g | Tissue uptake: Lung ([5]; 1 h p.i.): 4.8 ± 1.1 % ID/g | Tissue uptake: Muscle ([5]; 1 h p.i.): 1.7 ± 1.0 % ID/g | Tissue uptake: Pancreas ([5]; 1 h p.i.): 2.2 ± 1.0 % ID/g | Tissue uptake: Salivary glands ([5]; 1 h p.i.): 2.7 ± 1.7 % ID/g | Tissue uptake: Spleen ([5]; 1 h p.i.): 6.9 ± 1.6 % ID/g | Tissue uptake: Stomach ([5]; 1 h p.i.): 6.0 ± 2.3 % ID/g | Organ ratios: Liver-to-bone ([5]; 24 h p.i.): 2.7 ± 0.8 | Organ ratios: Blood-to-bone [5, 7]: <0.04^* | Organ ratios: Blood-to-liver [5, 7]: <0.01^* | Tissue uptake: Blood ([5]; 24 h p.i.): <0.5 % ID/g | Tissue uptake: Bone ([5]; 24 h p.i.): 14 ± 3 % ID/g | Tissue uptake: Brain ([5]; 24 h p.i.): <0.5 % ID/g | Tissue uptake: Heart ([5]; 24 h p.i.): 1.0 ± 0.1 % ID/g | Tissue uptake: Intestines ([5]; 24 h p.i.): 0.58 ± 0.06 % ID/g | Tissue uptake: Kidneys ([5]; 24 h p.i.): 3.8 ± 0.9 % ID/g | Tissue uptake: Lung ([5]; 24 h p.i.): 1.1 ± 0.2 % ID/g | Tissue uptake: Muscle ([5]; 24 h p.i.): <0.5 % ID/g | Tissue uptake: Pancreas ([5]; 24 h p.i.): <0.5 % ID/g | Tissue uptake: Salivary glands ([5]; 24 h p.i.): 0.53 ± 0.17 % ID/g | Tissue uptake: Spleen ([5]; 24 h p.i.): 5.6 ± 1.1 % ID/g | Tissue uptake: Stomach ([5]; 24 h p.i.): 1.9 ± 0.5 % ID/g | Tissue uptake: Liver ([5]; 24 h p.i., listed as europium): 37 ± 7 % ID/g | Tissue uptake: Liver ([5]; 24 h p.i., listed as natEu): ~ 37 % ID/g | Organ ratios: Liver-to-bone ([5]; 96 h p.i.): 1.3 ± 0.2 | Organ ratios: Blood-to-bone [5, 8]: <0.03^* | Organ ratios: Blood-to-liver [5, 8]: <0.02^* | Tissue uptake: Blood ([5]; 96 h p.i.): <0.5 % ID/g | Tissue uptake: Bone ([5]; 96 h p.i.): 18 ± 3 % ID/g | Tissue uptake: Brain ([5]; 96 h p.i.): <0.5 % ID/g | Tissue uptake: Heart ([5]; 96 h p.i.): 0.83 ± 0.05 % ID/g | Tissue uptake: Intestines ([5]; 96 h p.i.): 0.53 ± 0.04 % ID/g | Tissue uptake: Kidneys ([5]; 96 h p.i.): 1.9 ± 0.1 % ID/g | Tissue uptake: Liver ([5]; 96 h p.i.): 23 ± 1 % ID/g | Tissue uptake: Lung ([5]; 96 h p.i.): 0.88 ± 0.15 % ID/g | Tissue uptake: Muscle ([5]; 96 h p.i.): <0.5 % ID/g | Tissue uptake: Pancreas ([5]; 96 h p.i.): <0.5 % ID/g | Tissue uptake: Salivary glands ([5]; 96 h p.i.): <0.5 % ID/g | Tissue uptake: Spleen ([5]; 96 h p.i.): 3.5 ± 0.3 % ID/g | Tissue uptake: Stomach ([5]; 96 h p.i.): 2.3 ± 0.3 % ID/g

O=C([O-])CN1CCN(CC(=O)[O-])CCN(CC(=O)[O-])CCN(CC(=O)[O-])CC1.[Tb+3] [Tb-DOTA]
logK [3]: 24.2

O=C([O-])CN1CCN(CC(=O)[O-])CCN(CC(=O)[O-])CCN(CC(=O)[O-])CC1.[Eu+3] [Eu-DOTA]
logK [3]: 23.4

O=C([O-])CN(CCN(CC(=O)[O-])CC(=O)[O-])CCN(CC(=O)[O-])CC(=O)[O-].[Eu+3] [[^153Eu]Eu-DTPA]
Lanthanide detected in cell samples (background levels) [1]: < 20 ppt | Tissue uptake: Blood [6]: <0.5 % ID/g | Tissue uptake: Bone [6]: <0.5 % ID/g | Tissue uptake: Brain [6]: <0.5 % ID/g | Tissue uptake: Heart [6]: <0.5 % ID/g | Tissue uptake: Intestines [6]: <0.5 % ID/g | Tissue uptake: Kidneys [6]: 2.1 ± 1.0 % ID/g | Tissue uptake: Liver [6]: <0.5 % ID/g | Tissue uptake: Lung [6]: <0.5 % ID/g | Tissue uptake: Muscle [6]: <0.5 % ID/g | Tissue uptake: Pancreas [6]: <0.5 % ID/g | Tissue uptake: Salivary glands [6]: <0.5 % ID/g | Tissue uptake: Spleen [6]: <0.5 % ID/g | Tissue uptake: Stomach [6]: 0.51 ± 0.07 % ID/g
